From publication PMC8760230, “Translational Development of a Zr-89-Labeled Inhibitor of Prostate-specific Membrane Antigen for PET Imaging in Prostate Cancer” (Molecular Imaging and Biology, 2021)
Where “and” joins values, the source holds several entries; their conditions need not be identical. Equal values may be shown once. Entries after “also recorded” stand apart in the source; their conditions may differ. Read-outs that look alike come from different tables or passages of the source.

What was measured:
PSMA = target: T1, PSMA (Homo sapiens, UniProt Q04609); assay: Equilibrium dissociation constant Kd / Bmax, saturation binding on PSMA-positive LNCaP cells; settings: Scatchard plots
T1 construct: host or cells: LNCaP cells
Description: The equilibrium dissociation constant describing the interaction of the radiolabeled ligands with the PSMA binding sites was determined in PSMA-positive LNCaP cell lines (Cell Line Service, Eppelheim, Germany). LNCaP cells were seeded at a density of 10^6 cells/well on a 6-well plate (Corning, ME, USA) and incubated under 5% CO2 at 37 °C for 48 h with medium (minimum essential medium Eagle supplemented with 2 mM L-glutamine, 0.1 mM non-essential amino acids (NEAA), 1.0 mM sodium pyruvate, 10% fetal bovine serum, 100 U/ml penicillin, and 100 µg/ml streptomycin) (Lonza, Verviers, Belgium) in a humidified incubator (Thermo Heracell 150 CO2-Incubator, MA, USA). To determine the nonspecific binding, the medium was removed from selected wells, and 1 ml of a solution of 0.1 mM of 2-(phosphonomethyl)-pentanedioic acid (2-PMPA) in fresh medium was added. […] The plates were then incubated under 5% CO2, at 37 °C for 1 h. After that, the medium was removed and the cells incubated under the same incubation conditions for 3 h with different concentrations (0.25 nM, 2.5 nM, 5 nM, 10 nM, 25 nM, 50 nM, and 75 nM) of the radiotracer under investigation in 1 ml fresh medium.
After 3 h, the cells were washed three times with 1 ml PBS, and the cells were finally lysed by adding 1 ml of 1 M NaOH and incubating them for 10 min at room temperature. All samples were measured with a gamma counter (Nuklear Medizintechnik Dresden Isomed 100, Dresden, Germany) and were decay-corrected. The equilibrium dissociation constant (Kd) and the maximum density of receptors (Bmax) were calculated by non-linear regression using GraphPad Prism 8.0.2 (GraphPad Software, San Diego, USA).

prostate cancer relapse = assay: First-in-human PET/CT scan in a patient with biochemical recurrence of prostate cancer; settings: for SUVmax left prostate lobe / SUVmax right prostate lobe: 93 MBq
Description: The patient had given their written informed consent for PET imaging and the scientific evaluation of their data. All procedures were performed in accordance with the Institutional Review Board and the regulations of the regional authorities in Cologne. The kidney dose was estimated on the basis of two PET scans. The following assumptions were made for the estimation: Between time 0 (injection) and the first measuring point, the time-activity-curve follows a constant progression. All measuring points were integrated numerically using trapezoidal approximation. From the last measuring point to infinity, a mono-exponential function was fitted and integrated. As the effective half-life could not be accurately determined from two measurement points, the physical half-life of Zr-89 was used instead.

LNCaP cells [1] = assay: Cellular uptake (specific cell binding) in LNCaP cells; format: cell-based; settings: n=3
Description: (§1) The cell binding determined in these experiments is the sum of specific and nonspecific cell binding. To determine the values for nonspecific cell binding and internalization, all experiments were additionally performed in the presence of 2-PMPA.
(§2) The plates were incubated for 1 h; after which, 0.75 pmol of the radiotracer to be examined was added to 1 ml of fresh medium. The cells were incubated for 30 min, 1, 2, 3, and 5 h. At each time point, the supernatant was removed and the cells washed with 1 ml of PBS. To dissociate the receptor-bound radioligand, the cells were washed twice with 1 ml of a 0.1 M glycine buffer solution at pH 2.8 for 5 min. The 0.1 M glycine–HCl buffer dissociated all the surface-bound complexes. The cells were then washed with 1 ml of PBS, and the internalized fraction was determined by solubilizing the cells with 1 ml of 1 M NaOH and incubating them for 10 min at room temperature. The radioactivity collected from the culture medium, 0.1 M glycine (surface-bound), and 1 M NaOH (internalized fraction) was measured in a gamma counter and decay-corrected. Cell binding was calculated from the surface-bound (0.1 M glycine) and the internalized fraction (1 M NaOH). The internalized fraction was expressed as a percentage of cell binding (internalization to cell-bound radioactivity ratio). All cell uptake experiments were run in triplicate.

LNCaP tumor xenografts = settings: for Tumor/blood ratio / Tumor/kidneys ratio / Tumor/liver ratio / Tumor/muscle ratio: LNCaP xenograft mice; for Biodistribution Blood / Biodistribution Bone / Biodistribution Heart / Biodistribution Intestine / Biodistribution Kidneys / Biodistribution LNCAP-tumor / Biodistribution Liver / Biodistribution Lung / Biodistribution Muscle / Biodistribution Prostate / Biodistribution Spleen / Biodistribution Thyroid: i.v. 30 pmol, n=5
LNCaP cells [2] = assay: Internalization in LNCaP cells; format: cell-based; settings: n=3
Description: as §1, §2

LNCaP tumor xenograft = assay: Small-animal PET in mice bearing an LNCaP tumor xenograft, with and without blocking by 2-PMPA

T1 sequence (Q04609 whole entry): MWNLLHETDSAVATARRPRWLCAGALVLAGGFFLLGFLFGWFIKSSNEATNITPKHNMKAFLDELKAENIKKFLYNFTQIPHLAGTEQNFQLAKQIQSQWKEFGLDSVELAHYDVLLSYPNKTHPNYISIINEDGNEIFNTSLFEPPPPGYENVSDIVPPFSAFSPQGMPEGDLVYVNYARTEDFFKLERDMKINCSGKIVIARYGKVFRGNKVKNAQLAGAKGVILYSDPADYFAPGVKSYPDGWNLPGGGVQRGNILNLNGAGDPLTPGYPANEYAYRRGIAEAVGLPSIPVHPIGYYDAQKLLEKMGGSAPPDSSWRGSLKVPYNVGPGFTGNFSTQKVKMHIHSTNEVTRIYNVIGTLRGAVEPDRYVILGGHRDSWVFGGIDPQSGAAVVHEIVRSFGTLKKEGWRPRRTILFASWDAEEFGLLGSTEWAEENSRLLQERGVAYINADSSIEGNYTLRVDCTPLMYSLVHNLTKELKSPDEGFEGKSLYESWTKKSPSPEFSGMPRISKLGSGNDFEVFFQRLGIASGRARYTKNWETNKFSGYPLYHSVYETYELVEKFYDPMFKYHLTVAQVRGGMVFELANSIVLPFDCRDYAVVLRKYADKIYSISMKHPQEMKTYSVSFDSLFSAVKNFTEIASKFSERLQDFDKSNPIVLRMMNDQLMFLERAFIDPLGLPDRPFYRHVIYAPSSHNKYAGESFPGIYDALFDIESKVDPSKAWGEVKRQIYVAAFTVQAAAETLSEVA

Compound: CC(=O)N1CCCCCNC(=O)CCC(=O)N2CCCCCNC(=O)CCC(=O)N(CCCCCNC(=O)CCC(=O)NCC3CCC(C(=O)NC(Cc4ccc5ccccc5c4)C(=O)NCCCCC(NC(=O)NC(CCC(=O)O)C(=O)O)C(=O)O)CC3)[O][89Zr+]([O]1)[O]2 (centres unmarked) [[^89Zr]Zr-PSMA-DFO, [^89Zr]Zr-N-sucDf-AMCHA-2Nal-EuK]
- Bmax (maximum achievable concentration on 10^6 tumor cells) (PSMA): 1428 ± 42 fmol/10^6 cells
- Overall effective dose (ICRP 60) (prostate cancer relapse): 0.11 mSv/MBq
- SUVmax left prostate lobe (prostate cancer relapse; 48 h p.i.): 9.47
- SUVmax right prostate lobe (prostate cancer relapse; 48 h p.i.): 13.25
- SUVmax left prostate lobe (prostate cancer relapse; 72 h p.i.): 7.14
- SUVmax right prostate lobe (prostate cancer relapse; 72 h p.i.): 13.05
- Kidney dose (prostate cancer relapse; estimated from two PET scans): 2.8 mGy/MBq
- Specific binding in LNCaP cells as percentage of total activity (LNCaP cells [1]; 0.5 h): 29.1±2.1%
- Specific binding in LNCaP cells as percentage of total activity (LNCaP cells [1]; 1 h): 38.5±2.3%
- Specific binding in LNCaP cells as percentage of total activity (LNCaP cells [1]; 2 h): 46.5±1.3%
- Specific binding in LNCaP cells as percentage of total activity (LNCaP cells [1]; 3 h): 48.8±1.0%
- Specific binding in LNCaP cells as percentage of total activity (LNCaP cells [1]; 5 h): 49.4±1.3%
- Tumor/blood ratio (LNCaP tumor xenografts; 2 h p.i.): 183 ± 42
- Tumor/kidneys ratio (LNCaP tumor xenografts; 2 h p.i.): 0.31 ± 0.06
- Tumor/liver ratio (LNCaP tumor xenografts; 2 h p.i.): 27.5 ± 3.2
- Tumor/muscle ratio (LNCaP tumor xenografts; 2 h p.i.): 534 ± 62
- Biodistribution Blood (LNCaP tumor xenografts; 2 h p.i.): 0.14 ± 0.02 %ID/g
- Biodistribution Bone (LNCaP tumor xenografts; 2 h p.i.): 0.15 ± 0.04 %ID/g
- Biodistribution Heart (LNCaP tumor xenografts; 2 h p.i.): 0.11 ± 0.05 %ID/g
- Biodistribution Intestine (LNCaP tumor xenografts; 2 h p.i.): 0.65 ± 0.15 %ID/g
- Biodistribution Kidneys (LNCaP tumor xenografts; 2 h p.i.): 86.7 ± 18.7 %ID/g
- Biodistribution LNCAP-tumor (LNCaP tumor xenografts; 2 h p.i.): 26.3 ± 5.3 %ID/g
- Biodistribution Liver (LNCaP tumor xenografts; 2 h p.i.): 0.95 ± 0.15 %ID/g
- Biodistribution Lung (LNCaP tumor xenografts; 2 h p.i.): 0.5 ± 0.04 %ID/g
- Biodistribution Muscle (LNCaP tumor xenografts; 2 h p.i.): 0.05 ± 0.02 %ID/g
- Biodistribution Prostate (LNCaP tumor xenografts; 2 h p.i.): 0.15 ± 0.04 %ID/g
- Biodistribution Spleen (LNCaP tumor xenografts; 2 h p.i.): 0.49 ± 0.07 %ID/g
- Biodistribution Thyroid (LNCaP tumor xenografts; 2 h p.i.): 0.18 ± 0.03 %ID/g
- Tumor/blood ratio (LNCaP tumor xenografts; 4 h p.i.): 180 ± 61
- Tumor/kidneys ratio (LNCaP tumor xenografts; 4 h p.i.): 0.55 ± 0.01
- Tumor/liver ratio (LNCaP tumor xenografts; 4 h p.i.): 29.6 ± 5.1
- Tumor/muscle ratio (LNCaP tumor xenografts; 4 h p.i.): 297 ± 62
- Biodistribution Blood (LNCaP tumor xenografts; 4 h p.i.): 0.13 ± 0.04 %ID/g
- Biodistribution Bone (LNCaP tumor xenografts; 4 h p.i.): 0.13 ± 0.03 %ID/g
- Biodistribution Heart (LNCaP tumor xenografts; 4 h p.i.): 0.12 ± 0.03 %ID/g
- Biodistribution Intestine (LNCaP tumor xenografts; 4 h p.i.): 0.54 ± 0.10 %ID/g
- Biodistribution Kidneys (LNCaP tumor xenografts; 4 h p.i.): 41.3 ± 2.37 %ID/g
- Biodistribution LNCAP-tumor (LNCaP tumor xenografts; 4 h p.i.): 22.8 ± 1.5 %ID/g
- Biodistribution Liver (LNCaP tumor xenografts; 4 h p.i.): 0.79 ± 0.17 %ID/g
- Biodistribution Lung (LNCaP tumor xenografts; 4 h p.i.): 0.12 ± 0.03 %ID/g
- Biodistribution Muscle (LNCaP tumor xenografts; 4 h p.i.): 0.08 ± 0.02 %ID/g
- Biodistribution Prostate (LNCaP tumor xenografts; 4 h p.i.): 1.12 ± 0.16 %ID/g
- Biodistribution Spleen (LNCaP tumor xenografts; 4 h p.i.): 0.61 ± 0.09 %ID/g
- Biodistribution Thyroid (LNCaP tumor xenografts; 4 h p.i.): 0.13 ± 0.02 %ID/g
- Tumor/blood ratio (LNCaP tumor xenografts; 24 h p.i.): 309 ± 89
- Tumor/kidneys ratio (LNCaP tumor xenografts; 24 h p.i.): 1.0 ± 0.3 and 1.02 ± 0.28
- Tumor/liver ratio (LNCaP tumor xenografts; 24 h p.i.): 40.0 ± 1.1
- Tumor/muscle ratio (LNCaP tumor xenografts; 24 h p.i.): 450 ± 38
- Biodistribution Blood (LNCaP tumor xenografts; 24 h p.i.): 0.05 ± 0.01 %ID/g
- Biodistribution Bone (LNCaP tumor xenografts; 24 h p.i.): 0.18 ± 0.02 %ID/g
- Biodistribution Heart (LNCaP tumor xenografts; 24 h p.i.): 0.09 ± 0.02 %ID/g
- Biodistribution Intestine (LNCaP tumor xenografts; 24 h p.i.): 0.25 ± 0.08 %ID/g
- Biodistribution Kidneys (LNCaP tumor xenografts; 24 h p.i.): 15.4 ± 4.1 %ID/g
- Biodistribution LNCAP-tumor (LNCaP tumor xenografts; 24 h p.i.): 14.9 ± 1.2 %ID/g
- Biodistribution Liver (LNCaP tumor xenografts; 24 h p.i.): 0.37 ± 0.03 %ID/g
- Biodistribution Lung (LNCaP tumor xenografts; 24 h p.i.): 0.04 ± 0.01 %ID/g
- Biodistribution Muscle (LNCaP tumor xenografts; 24 h p.i.): 0.03 ± 0.01 %ID/g
- Biodistribution Prostate (LNCaP tumor xenografts; 24 h p.i.): 0.50 ± 0.01 %ID/g
- Biodistribution Spleen (LNCaP tumor xenografts; 24 h p.i.): 0.36 ± 0.08 %ID/g
- Biodistribution Thyroid (LNCaP tumor xenografts; 24 h p.i.): 0.05 ± 0.01 %ID/g
- In vivo stability (no time-dependent increase in Zr-89 accumulation in bone) (LNCaP tumor xenografts; mice, 24 h or 48 h p.i., biokinetics and small-animal PET): convincing in vivo stability
- Specific internalized activity as percentage of specific cell-bound activity (LNCaP cells [2]; 0.5 h): 32.7±4.1%
- Specific internalized activity as percentage of specific cell-bound activity (LNCaP cells [2]; 1 h): 39.8±0.4%
- Specific internalized activity as percentage of specific cell-bound activity (LNCaP cells [2]; 2 h): 48.0±3.4%
- Specific internalized activity as percentage of specific cell-bound activity (LNCaP cells [2]; 3 h): 50.0±0.6%
- Specific internalized activity as percentage of specific cell-bound activity (LNCaP cells [2]; 5 h): 61.7±3.4%
- Visibility of LNCaP tumor xenograft in PET (LNCaP tumor xenograft; 48 h p.i., 10 MBq): still clearly visible; also recorded: remained clearly visible
- Radioactivity in the bladder (LNCaP tumor xenograft; mice, 48 h after injection): no detectable radioactivity
- Share of renal radioactivity due to specific binding (LNCaP tumor xenograft; mouse, blocking experiment with 2-PMPA): approximately two-thirds
- Period over which the radioligand was found stable (37 °C, PBS and human serum, TLC, HPLC in PBS, listed as Zr-89-radioligand): 7 days
- Radiochemical purity remaining on storage (storage in aqueous solution for 7 days): > 99%
